Measurements taken from patent EP0745595A1, “3-(3-Aryloxyphenyl)-1-(substituted methyl)-s-triazine-2,4,6-oxo or thiotrione herbicidal agents” (American Cyanamid Company, priority 1995, dated 1996).

Columns and labels:
Format in all cases: in vivo
ZEA MAYS L. = assay: Postemergence herbicidal evaluation, ZEAMX (Corn, Field);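 note: higher means more injury with 8 approaching complete kill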
Method in brief: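 Corn seedlings were raised in jiffy flats for roughly two weeks, then sprayed postemergence with the test material dispersed in 50/50 acetone/water containing 0.5% TWEEN®20 surfactant, using a nozzle at 40 psi. Plants were kept on greenhouse benches under standard care and visually rated on a 0-9 scale four to five weeks after treatment.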

CHENOPODIUM ALBUM, L. [1] = assay: Postemergence herbicidal evaluation, CHEAL (Lambsquarters, Common);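 note: higher means more injury with 8 approaching complete kill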
Method in brief: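 Seedlings of common lambsquarters (Chenopodium album) were raised in jiffy flats for roughly two weeks, then sprayed postemergence through a nozzle at 40 psi with test compound dispersed in 50/50 acetone/water containing 0.5% TWEEN®20 surfactant. Plants were kept on greenhouse benches under standard care and rated visually on a 0-9 scale versus controls.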

[2] = system: TRITICUM AESTIVUM, CV. APOLLO; assay: Postemergence herbicidal evaluation, TRZAWO (Wheat, Winter, CV. APOLLO); conditions: for TRZAWO, herbicide rating (0-9): crop, rated four to five weeks after treatment, averaged
Method in brief: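 Wheat seedlings, raised in jiffy flats for roughly two weeks, were sprayed postemergence with test compound dispersed in a 50/50 acetone/water mixture containing 0.5% TWEEN®20 surfactant, delivered through a nozzle at 40 psi. Plants were then kept on greenhouse benches under conventional care. Four to five weeks after treatment they were rated visually on a 0-9 scale against an untreated control, and ratings from repeated tests were averaged.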

[3] = system: ECHINOCHLOA CRUS-GALLI, (L) BEAU; assay: Postemergence herbicidal evaluation, ECHCG (Barnyardgrass); parameters: key to ECHCG rating / Herbicidal effect rating, ECHCG / ECHCG: 0-9 visual rating scale vs untreated control
Method in brief: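 Greenhouse postemergence test. Seedlings (~2 wk) sprayed at 40 psi; dose ~0.125–0.500 kg/ha in acetone/water (1:1), 0.5% TWEEN 20. Scored 0–9 at 4–5 wk.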

[4] = system: AMBROSIA ARTEMISIIFOLIA, L.; assay: Postemergence herbicidal evaluation, AMBEL (Ragweed, Common); conditions: for AMBEL, herbicide rating (0-9): rated four to five weeks after treatment, averaged
Method in brief: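 Common ragweed (Ambrosia artemisiifolia) seedlings were raised in jiffy flats for roughly two weeks, then sprayed postemergence through a nozzle at 40 psi with the test compound dispersed in 50/50 acetone/water carrying 0.5% TWEEN®20. The plants were kept on greenhouse benches under conventional care. Four to five weeks later, injury was rated visually on a 0-9 scale, and repeat tests were averaged.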

CHENOPODIUM ALBUM, L. [5] = assay: Preemergence herbicidal evaluation, CHEAL (Lambsquarters, Common); conditions: for CHEAL herbicidal rating: rated four to five weeks after treatment
Method in brief: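 Greenhouse preemergence test; treated soil cups received compound in aqueous acetone (about 0.125 to 0.50 kg/ha) right after sowing and were assessed visually 4-5 weeks later on a 0-9 scale compared with control plants.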

IPOMOEA SPP. = assay: Postemergence herbicidal evaluation, IPOSS (Morningglory spp.); conditions: for IPOSS, herbicide rating (0-9): rated four to five weeks after treatment, averaged
Method in brief: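 Seedlings of morningglory (Ipomoea spp.) were raised in jiffy flats for roughly two weeks. They were then sprayed postemergence through a nozzle at 40 psi with test compound dispersed in 50/50 acetone/water containing 0.5% TWEEN®20 surfactant. Plants were kept on greenhouse benches under standard care and visually rated 0-9 against controls four to five weeks after treatment.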

[6] = system: ABUTILON THEOPHRASTI, MEDIC.; assay: Postemergence herbicidal evaluation, ABUTH (Velvetleaf); conditions: for ABUTH, herbicide rating (0-9): rated four to five weeks after treatment, averaged
Method in brief: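 Velvetleaf (Abutilon theophrasti) seedlings were raised in jiffy flats for about two weeks and then sprayed postemergence. The test compound was dispersed in a 50/50 acetone/water mixture containing 0.5% TWEEN®20 and applied through a nozzle operating at 40 psi. Plants were kept on greenhouse benches and rated 0-9 four to five weeks after treatment.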

CASSIA OBTUSIFOLIA, L. = assay: Postemergence herbicidal evaluation, CASOB (Sicklepod); parameters: key to CASOB rating / Herbicidal effect rating, CASOB / CASOB: 0-9 visual rating scale vs untreated control; conditions: for CASOB, herbicide rating (0-9): rated four to five weeks after treatment, averaged
Method in brief: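 Two-week-old seedlings sprayed with compound in 50/50 acetone/water plus 0.5% TWEEN 20 at about 0.125–0.500 kg/ha via nozzle at 40 psi. Kept in greenhouse; rated visually 4–5 weeks after treatment on a 0–9 scale versus untreated control, averaging repeat tests.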

GALIUM APARINE = assay: Postemergence herbicidal evaluation, GALAP (Galium); parameters: key to GALAP rating / Herbicidal effect rating, GALAP / GALAP: 0-9 visual rating scale vs untreated control; conditions: for GALAP, herbicide rating (0-9): rated four to five weeks after treatment, averaged
Method in brief: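 Galium (GALAP) seedlings were raised in jiffy flats for about two weeks, then sprayed with test compounds dispersed in 50/50 acetone/water containing 0.5% TWEEN®20, delivered through a nozzle at 40 psi. Plants were kept on greenhouse benches and visually rated 0-9 against a control four to five weeks later; repeat tests were averaged.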

[7] = system: ORYZA SATIVA, L. TEBONNET; assay: Rice tolerance to post-transplant applications under flooded paddy conditions, ORYSAT (Rice, Tebonnet); conditions: for Herbicidal effect rating, ORYSAT: post-transplant rice, 3-4 weeks after treatment; for ORYSAT: post-transplanted rice
Method in brief: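 Post-transplant paddy test: compound applied 3 d after transplanting to flooded soil (1.5-3 cm water), ~0.063-0.5 kg/ha a.i., 50/50 aq/acetone. Silt loam, 2 × 10-d seedlings/pot. Greenhouse 3-4 wk, visual 0-9 score vs control.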

Work on COC(=O)Cn1c(=O)n(C)c(=O)n(-c2cc(Oc3c(F)cc(C(F)(F)F)cc3Cl)ccc2[N+](=O)[O-])c1=O [Compound 16, Methyl 3-{5-[(2-chloro-α,α,α,6-tetrafluoro-p-tolyl)oxy]-2-nitrophenyl}tetrahydro-5-methyl-2,4,6-trioxo-s-triazine-1(2H)-acetate] yielded a ZEAMX (ZEA MAYS L.; Rate 0.008 kg/ha) of 2.0, a ZEAMX (ZEA MAYS L.; Rate 0.016 kg/ha) of 2.4 and a ZEAMX (ZEA MAYS L.; Rate 0.031 kg/ha) of 3.0. For the same molecule, the ZEAMX (ZEA MAYS L.; Rate 0.063 kg/ha) was 3.4, the ZEAMX (ZEA MAYS L.; Rate 0.125 kg/ha) was 4.2 and the CHEAL (CHENOPODIUM ALBUM, L. [1]; Rate 0.008 kg/ha) was 0.0. It also gave a CHEAL (CHENOPODIUM ALBUM, L. [1]; Rate 0.016 kg/ha) of 1.5, a CHEAL (CHENOPODIUM ALBUM, L. [1]; Rate 0.031 kg/ha) of 3.0 and a CHEAL (CHENOPODIUM ALBUM, L. [1]; Rate 0.063 kg/ha) of 3.7. It also gave a CHEAL (CHENOPODIUM ALBUM, L. [1]; Rate 0.125 kg/ha) of 6.5, a TRZAWO ([2]; Rate 0.008 kg/ha) of 4.5 and a TRZAWO ([2]; Rate 0.016 kg/ha) of 4.7. It also gave a TRZAWO ([2]; Rate 0.031 kg/ha) of 6.4, a TRZAWO ([2]; Rate 0.063 kg/ha) of 7.4 and a TRZAWO ([2]; Rate 0.125 kg/ha) of 8.4. The “TRZAWO, herbicide rating (0-9)” value ([2]; Rate 0.125 kg/ha) was 8.4, the “TRZAWO, herbicide rating (0-9)” value ([2]; Rate 0.250 kg/ha) was 8.4 and the “TRZAWO, herbicide rating (0-9)” value ([2]; Rate 0.500 kg/ha) was 8.4. For the same molecule, the ECHCG ([3]; Rate 0.008 kg/ha) was 0.0, the ECHCG ([3]; Rate 0.016 kg/ha) was 0.5 and the ECHCG ([3]; Rate 0.031 kg/ha) was 0.7. For the same molecule, the ECHCG ([3]; Rate 0.063 kg/ha) was 1.7, the ECHCG ([3]; Rate 0.125 kg/ha) was 3.7 and the AMBEL ([4]; Rate 0.008 kg/ha) was 7.0. It also gave an AMBEL ([4]; Rate 0.016 kg/ha) of 9.0, an AMBEL ([4]; Rate 0.031 kg/ha) of 9.0 and an AMBEL ([4]; Rate 0.063 kg/ha) of 9.0. The AMBEL ([4]; Rate 0.125 kg/ha) was 9.0, the “AMBEL, herbicide rating (0-9)” value ([4]; Rate 0.125 kg/ha) was 9.0 and the “AMBEL, herbicide rating (0-9)” value ([4]; Rate 0.250 kg/ha) was 9.0. The “AMBEL, herbicide rating (0-9)” value ([4]; Rate 0.500 kg/ha) was 9.0, the CHEAL (CHENOPODIUM ALBUM, L. [5]; Rate 0.031 kg/ha) was 9.0 and the CHEAL (CHENOPODIUM ALBUM, L. [5]; Rate 0.063 kg/ha) was 9.0. For the same molecule, the CHEAL (CHENOPODIUM ALBUM, L. [5]; Rate 0.125 kg/ha) was 9.0, the CHEAL herbicidal rating (CHENOPODIUM ALBUM, L. [5]; Rate 0.125 kg/ha) was 9.0 and the CHEAL (CHENOPODIUM ALBUM, L. [5]; Rate 0.250 kg/ha) was 9.0. For the same molecule, the CHEAL herbicidal rating (CHENOPODIUM ALBUM, L. [5]; Rate 0.250 kg/ha) was 9.0, the CHEAL herbicidal rating (CHENOPODIUM ALBUM, L. [5]; Rate 0.500 kg/ha) was 9.0 and the IPOSS (IPOMOEA SPP.; Rate 0.008 kg/ha) was 6.0. It also gave an IPOSS (IPOMOEA SPP.; Rate 0.016 kg/ha) of 7.0, an IPOSS (IPOMOEA SPP.; Rate 0.031 kg/ha) of 7.0 and an IPOSS (IPOMOEA SPP.; Rate 0.063 kg/ha) of 8.3. The IPOSS (IPOMOEA SPP.; Rate 0.125 kg/ha) was 9.0, the “IPOSS, herbicide rating (0-9)” value (IPOMOEA SPP.; Rate 0.125 kg/ha) was 9.0 and the “IPOSS, herbicide rating (0-9)” value (IPOMOEA SPP.; Rate 0.250 kg/ha) was 9.0. The “IPOSS, herbicide rating (0-9)” value (IPOMOEA SPP.; Rate 0.500 kg/ha) was 9.0, the ABUTH ([6]; Rate 0.008 kg/ha) was 5.5 and the ABUTH ([6]; Rate 0.016 kg/ha) was 8.3. For the same molecule, the ABUTH ([6]; Rate 0.031 kg/ha) was 8.0, the ABUTH ([6]; Rate 0.063 kg/ha) was 8.3 and the ABUTH ([6]; Rate 0.125 kg/ha) was 9.0. For the same molecule, the “ABUTH, herbicide rating (0-9)” value ([6]; Rate 0.125 kg/ha) was 9.0, the “ABUTH, herbicide rating (0-9)” value ([6]; Rate 0.250 kg/ha) was 9.0 and the “ABUTH, herbicide rating (0-9)” value ([6]; Rate 0.500 kg/ha) was 9.0. The CASOB (CASSIA OBTUSIFOLIA, L.; Rate 0.008 kg/ha) was 5.5, the CASOB (CASSIA OBTUSIFOLIA, L.; Rate 0.016 kg/ha) was 8.7 and the CASOB (CASSIA OBTUSIFOLIA, L.; Rate 0.031 kg/ha) was 9.0. The CASOB (CASSIA OBTUSIFOLIA, L.; Rate 0.063 kg/ha) was 8.3, the CASOB (CASSIA OBTUSIFOLIA, L.; Rate 0.125 kg/ha) was 9.0 and the “CASOB, herbicide rating (0-9)” value (CASSIA OBTUSIFOLIA, L.; Rate 0.125 kg/ha) was 9.0. For the same molecule, the “CASOB, herbicide rating (0-9)” value (CASSIA OBTUSIFOLIA, L.; Rate 0.250 kg/ha) was 9.0, the “CASOB, herbicide rating (0-9)” value (CASSIA OBTUSIFOLIA, L.; Rate 0.500 kg/ha) was 9.0 and the GALAP (GALIUM APARINE; Rate 0.008 kg/ha) was 4.5. For the same molecule, the GALAP (GALIUM APARINE; Rate 0.016 kg/ha) was 6.0, the GALAP (GALIUM APARINE; Rate 0.031 kg/ha) was 8.0 and the GALAP (GALIUM APARINE; Rate 0.063 kg/ha) was 9.0. For the same molecule, the GALAP (GALIUM APARINE; Rate 0.125 kg/ha) was 9.0, the “GALAP, herbicide rating (0-9)” value (GALIUM APARINE; Rate 0.125 kg/ha) was 9.0 and the “GALAP, herbicide rating (0-9)” value (GALIUM APARINE; Rate 0.250 kg/ha) was 9.0. The “GALAP, herbicide rating (0-9)” value (GALIUM APARINE; Rate 0.500 kg/ha) was 9.0, the “Herbicidal effect rating, ORYSAT” value ([7]; 0.063 kg/ha) was 3.5 and the “Herbicidal effect rating, ORYSAT” value ([7]; 0.125 kg/ha) was 5.0. The “Herbicidal effect rating, ORYSAT” value ([7]; 0.250 kg/ha) was 7.0, the “Herbicidal effect rating, ORYSAT” value ([7]; 0.500 kg/ha) was 6.0 and the ORYSAT ([7]; Rate 0.031 kg/ha) was 3.0. It also gave an ORYSAT ([7]; Rate 0.063 kg/ha) of 3.5, an ORYSAT ([7]; Rate 0.125 kg/ha) of 5.0 and an ORYSAT ([7]; Rate 0.250 kg/ha) of 7.0.
